The test system of data set [1] is Beet Armyworm (BAW). The experiment in a line: Bioassays on BAW, 128-well diet tray assay. Particulars: Spodoptera exigua; for mortality at 50 µg/cm2: 168 h, 50 μg/cm^2 on artificial diet, second instar larvae, five to seven days, 25° C., read-out: BAW % Control (or Mortality) rating. In kind it is in vivo. How it is done:
Bioassays on BAW were conducted using a 128-well diet tray assay. one to five second instar BAW larvae were placed in each well (3 mL) of the diet tray that had been previously filled with 1 mL of artificial diet to which 50 μg/cm^2 of the test compound (dissolved in 50 μL of 90:10 acetone-water mixture) had been applied (to each of eight wells) and then allowed to dry. Trays were covered with a clear self-adhesive cover, and held at 25° C., 14:10 light-dark for five to seven days. Percent mortality was recorded for the larvae in each well; activity in the eight wells was then averaged. The results are indicated in the tables entitled “Table ABC: Assay Results (F)”, “Table ABCD: Assay Results (C)”, and “Table ABCDE: Assay Results (P)” (See Table Section).
(§1) Bioassays on BAW and CL were conducted according to the procedures outlined in Example A: Bioassays on Beet Armyworm (“BAW”) and Cabbage Looper (“CL”) using the following concentrations: 5, 0.5, and 0.05 μg/cm^2.

The test system of data set [2] is Cabbage Looper (CL). The experiment in a line: Bioassays on CL, 128-well diet tray assay. Type of data set: in vivo. Particulars: Trichoplusia ni; for mortality at 50 µg/cm2: 168 h, 50 μg/cm^2 on artificial diet, second instar larvae, five to seven days, 25° C., read-out: CL % Control (or Mortality) rating. How it is done:
Bioassays on CL were conducted using a 128-well diet tray assay. One to five second instar CL larvae were placed in each well (3 mL) of the diet tray that had been previously filled with 1 mL of artificial diet to which 50 μg/cm^2 of the test compound (dissolved in 50 μL of 90:10 acetone-water mixture) had been applied (to each of eight wells) and then allowed to dry. Trays were covered with a clear self-adhesive cover, and held at 25° C., 14:10 light-dark for five to seven days. Percent mortality was recorded for the larvae in each well; activity in the eight wells was then averaged. The results are indicated in the table entitled “Table ABC: Assay Results (F)”, “Table ABCD: Assay Results (C)”, and “Table ABCDE: Assay Results (P)” (See Table Section).
as §1

Data set [3] concerns Yellow Fever Mosquito (YFM). In kind it is in vivo, Aedes aegypti. The following applies: 15 μL of diluted 4000 ppm master solution per well, about 1 day-old larvae, 3 days. How it is done: Master plates containing 400 μg of a molecule dissolved in 100 μL of dimethyl sulfoxide (DMSO) (equivalent to a 4000 ppm solution) are used. A master plate of assembled molecules contains 15 μL per well. To this plate, 135 μL of a 90:10 water:acetone mixture is added to each well. A robot (Biomek® NXP Laboratory Automation Workstation) is programmed to dispense 15 μL aspirations from the master plate into an empty 96-well shallow plate (“daughter” plate). There are 6 reps (“daughter” plates) created per master. The created daughter plates are then immediately infested with YFM larvae. The day before plates are to be treated, mosquito eggs are placed in Millipore water containing liver powder to begin hatching (4 g. into 400 mL). After the daughter plates are created using the robot, they are infested with 220 μL of the liver powder/larval mosquito mixture (about 1 day-old larvae). After plates are infested with mosquito larvae, a non-evaporative lid is used to cover the plate to reduce drying. Plates are held at room temperature for 3 days prior to grading. After 3 days, each well is observed and scored based on mortality. The results are indicated in the table entitled “Table ABC: Assay Results (F)” and “Table ABCD: Assay Results (C)” (See Table Section). Pesticidally Acceptable Acid Addition Salts, Salt Derivatives, Solvates, Ester Derivatives, Polymorphs, Isotopes and Radionuclides

Usually mortality stands for the percentage killed. `CC(C)CCC(=O)N[C@@H](C)NC(=O)c1ccc(/C=C/C(c2cc(Cl)c(Cl)c(Cl)c2)C(F)(F)F)cc1C(F)(F)F` (stereo partly drawn) [Compound F4, N—((R)-1-(4-Methylpentanamido)ethyl)-4-((E)-4,4,4-trifluoro-3-(3,4,5-trichlorophenyl)but-1-en-1-yl)-2-(trifluoromethyl)benzamide]: the mortality at 50 µg/cm2 in data set [1] and in data set [2] was 50 to 100% in each case. In data set [3], the “YFM % Control (or Mortality) rating” value was “A (80-100)”.

Regarding `CN(NC(=O)c1ccc(/C=C/C(c2cc(Cl)c(Cl)c(Cl)c2)C(F)(F)F)cc1C(F)(F)F)C(=O)CC(F)(F)F` (stereo not drawn) [Compound F22, (E)-N′-methyl-4-(4,4,4-trifluoro-3-(3,4,5-trichlorophenyl)but-1-en-1-yl)-2-(trifluoromethyl)-N′-(3,3,3-trifluoropropanoyl)benzohydrazide], the mortality at 50 µg/cm2 in data set [1] and in data set [2] was 50 to 100% throughout. Moreover, the “YFM % Control (or Mortality) rating” value in data set [3] is listed as “A (80-100)”.

On to `C[C@H](NC(=O)CCC(C)(C)C)NC(=O)c1ccc(/C=C/C(c2cc(Cl)c(Cl)c(Cl)c2)C(F)(F)F)cc1C(F)(F)F` (stereo partly drawn) [Compound F17, N—((R)-1-(4,4-Dimethylpentanamido)ethyl)-4-((E)-4,4,4-trifluoro-3-(3,4,5-trichlorophenyl)but-1-en-1-yl)-2-(trifluoromethyl)benzamide], for which the mortality at 50 µg/cm2 in data set [1] and in data set [2] was 50 to 100% in each case. Also, in data set [3], the “YFM % Control (or Mortality) rating” value is “A (80-100)”.

Regarding `C[C@H](NC(=O)CCC(F)(F)F)NC(=O)c1ccc(/C=C/C(c2cc(Br)cc(Br)c2)C(F)(F)F)cc1C(F)(F)F` (stereo partly drawn) [Compound P11, 4-((E)-3-(3,5-Dibromophenyl)-4,4,4-trifluorobut-1-en-1-yl)-N—((R)-1-(4,4,4-trifluorobutanamido)ethyl)-2-(trifluoromethyl)benzamide], the mortality at 50 µg/cm2 in data set [1] and in data set [2] was 50 to 100% throughout. Also, in data set [3], the “YFM % Control (or Mortality) rating” value was “A (80-100)”.

For `C[C@H](NC(=O)CCC(F)(F)F)NC(=O)c1ccc(/C=C/C(c2cc(Cl)c(Cl)c(Cl)c2)C(F)(F)F)cc1Br` (stereo partly drawn) [Compound P27, 2-Bromo-4-((E)-4,4,4-trifluoro-3-(3,4,5-trichlorophenyl)but-1-en-1-yl)-N—((R)-1-(4,4,4-trifluorobutanamido)ethyl)benzamide], the mortality at 50 µg/cm2 in data set [1] and in data set [2] was 50 to 100% throughout. Moreover, the mortality at 0.05 µg/cm2 in data set [1] (0.05 μg/cm^2, read-out: BAW Percent control (or mortality)) was 0%; in data set [2] (0.05 μg/cm^2, read-out: CL Percent control (or mortality)), 0%. In addition, the mortality at 0.5 µg/cm2 in data set [1] (0.5 μg/cm^2, read-out: BAW Percent control (or mortality)) is 0%; in data set [2] (0.5 μg/cm^2, read-out: CL Percent control (or mortality)), 7%. Further, the mortality at 5 µg/cm2 in data set [1] (5 μg/cm^2, read-out: BAW Percent control (or mortality)) was 7%; in data set [2] (5 μg/cm^2, read-out: CL Percent control (or mortality)) it was 100%. Further, the “YFM % Control (or Mortality) rating” value in data set [3] is given as “B (More than 0-Less than 80)”.

For the compound `CC(C)=CC(=O)N[C@@H](C)NC(=O)c1ccc(/C=C/C(c2cc(Cl)c(Cl)c(Cl)c2)C(F)(F)F)cc1C(F)(F)F` (stereo partly drawn) [Compound F8, N—((R)-1-(3-Methylbut-2-enamido)ethyl)-4-((E)-4,4,4-trifluoro-3-(3,4,5-trichlorophenyl)but-1-en-1-yl)-2-(trifluoromethyl)benzamide], the mortality at 50 µg/cm2 in data set [1] and in data set [2] was 50 to 100% in each case. Further, the “YFM % Control (or Mortality) rating” value in data set [3] was “A (80-100)”.

As for `C[C@H](NC(=O)CC(F)(F)F)NC(=O)c1ccc(/C=C/C(c2cc(Cl)c(Br)c(Cl)c2)C(F)(F)F)cc1C(F)(F)F` (stereo partly drawn) [Compound P4, 4-((E)-3-(4-Bromo-3,5-dichlorophenyl)-4,4,4-trifluorobut-1-en-1-yl)-2-(trifluoromethyl)-N—((R)-1-(3,3,3-trifluoropropanamido)ethyl)benzamide], the mortality at 50 µg/cm2 in data set [1] and in data set [2] was 50 to 100% throughout. Also, the “YFM % Control (or Mortality) rating” value in data set [3] is listed as “A (80-100)”.

On to `CC(NC(=O)c1ccc(/C=C/C(c2cc(Cl)c(Cl)c(Cl)c2)C(F)(F)F)cc1C(F)(F)F)NC(=O)C(C)(C)C` (stereo in doubt) [Compound F19, N—((S)-1-Pivalamidoethyl)-4-((E)-4,4,4-trifluoro-3-(3,4,5-trichlorophenyl)but-1-en-1-yl)-2-(trifluoromethyl)benzamide], for which the mortality at 50 µg/cm2 in data set [1] and in data set [2] was 50 to 100% each time. Also, the “YFM % Control (or Mortality) rating” value in data set [3] is listed as “A (80-100)”.

As to `CC(CC(=O)N[C@@H](C)NC(=O)c1ccc(/C=C/C(c2cc(Cl)c(Cl)c(Cl)c2)C(F)(F)F)cc1C(F)(F)F)C(F)(F)F` (stereo partly drawn) [Compound F16, 4-((E)-4,4,4-Trifluoro-3-(3,4,5-trichlorophenyl)but-1-en-1-yl)-N-((1R)-1-(4,4,4-trifluoro-3-methylbutanamido)ethyl)-2-(trifluoromethyl)benzamide], the mortality at 50 µg/cm2 in data set [1] and in data set [2] was 50 to 100% throughout. In addition, in data set [3], the “YFM % Control (or Mortality) rating” value is recorded as “A (80-100)”.

Turning to `C[C@H](NC(=O)CC(F)(F)F)NC(=O)c1ccc(/C=C/C(c2cc(Br)cc(Br)c2)C(F)(F)F)cc1C(F)(F)F` (stereo partly drawn) [Compound P3, 4-((E)-3-(3,5-Dibromophenyl)-4,4,4-trifluorobut-1-en-1-yl)-2-(trifluoromethyl)-N—((R)-1-(3,3,3-trifluoropropanamido)ethyl)benzamide], the mortality at 50 µg/cm2 in data set [1] and in data set [2] was 50 to 100% in each case. Besides, in data set [3], the “YFM % Control (or Mortality) rating” value is reported as “B (More than 0-Less than 80)”.

With `C[C@H](NC(=O)CCC(F)(F)F)NC(=O)c1ccc(/C=C/C(c2cc(Cl)c(Br)c(Cl)c2)C(F)(F)F)cc1C(F)(F)F` (stereo partly drawn) [Compound P12, 4-((E)-3-(4-Bromo-3,5-dichlorophenyl)-4,4,4-trifluorobut-1-en-1-yl)-N—((R)-1-(4,4,4-trifluorobutanamido)ethyl)-2-(trifluoromethyl)benzamide], the mortality at 50 µg/cm2 in data set [1] and in data set [2] was 50 to 100% throughout. In addition, in data set [3], the “YFM % Control (or Mortality) rating” value is recorded as “A (80-100)”.

Consider `C[C@H](NC(=O)CC(F)(F)F)NC(=O)c1ccc(/C=C/C(c2cc(Br)c(Cl)c(Br)c2)C(F)(F)F)cc1C(F)(F)F` (stereo partly drawn) [Compound P2, 4-((E)-3-(3,5-Dibromo-4-chlorophenyl)-4,4,4-trifluorobut-1-en-1-yl)-2-(trifluoromethyl)-N—((R)-1-(3,3,3-trifluoropropanamido)ethyl)benzamide], for which the mortality at 50 µg/cm2 in data set [1] and in data set [2] was 50 to 100% in each case. In data set [3], the “YFM % Control (or Mortality) rating” value is recorded as “A (80-100)”.

As for `Cc1cc(/C=C/C(c2cc(Br)cc(Br)c2)C(F)(F)F)ccc1C(=O)N[C@H](C)NC(=O)CC(F)(F)F` (stereo partly drawn) [Compound P7, 4-((E)-3-(3,5-Dibromophenyl)-4,4,4-trifluorobut-1-en-1-yl)-2-methyl-N—((R)-1-(3,3,3-trifluoropropanamido)ethyl)benzamide], the mortality at 50 µg/cm2 in data set [1] and in data set [2] was 50 to 100% each time. Further, in data set [3], the “YFM % Control (or Mortality) rating” value is reported as “A (80-100)”.

With `CC[C@H](NC(=O)CCC(F)(F)F)NC(=O)c1ccc(/C=C/C(c2cc(Cl)c(Cl)c(Cl)c2)C(F)(F)F)cc1C(F)(F)F` (stereo partly drawn) [Compound F12, 4-((E)-4,4,4-Trifluoro-3-(3,4,5-trichlorophenyl)but-1-en-1-yl)-N—((R)-1-(4,4,4-trifluorobutanamido)propyl)-2-(trifluoromethyl)benzamide], the mortality at 50 µg/cm2 in data set [1] and in data set [2] was 50 to 100% each time. The “YFM % Control (or Mortality) rating” value in data set [3] is “A (80-100)”.

The record behind these values is US9676704B2, “Pesticidal compositions and processes related thereto” (Dow AgroSciences LLC, priority 2014, dated 2017).
